Test results as given in patent US20110104713A1, “PRODUCTS AND PROCESSES FOR MODULATING PEPTIDE-PEPTIDE BINDING DOMAIN INTERACTIONS” (priority 2002, published 2011).
“Also recorded” adds a separate entry of the source.

Key:
[1] = test system: GST-PTIP tandem BRCT domains interaction with 53BP1; assay: GST-PTIP tandem BRCT pull-down of 53BP1 from irradiated U2OS cells; assay type: binding, human; conditions: 25 mM caffeine prior to irradiation, U2OS
Description: (§1) U2OS cells were either treated with 10 Gy of ionizing radiation or mock irradiated and allowed to recover for 30-120 minutes. Cells were subsequently lysed in 50 mM Tris/HCl (pH7.6), 150 mM NaCl, 1.0% NP-40, 5 mM EDTA, 2 mM DTT, 8 μg/mL pepstatin, 8 μg/mL aprotinin, 8 μg/mL leupeptin, 2 mM Na3VO4, 10 mM NaF, 1 μM microcystin. The lysates (0.5-2 mg) were incubated with 20 μL glutathione beads containing 10-20 μg of GST-PTIP BRCT domains (residues 550-757), GST-BRCA1 BRCT domains (residues 1634-1863), or GST for 120 minutes at 4° C. Beads were washed three times with lysis buffer. Precipitated proteins were eluted in sample buffer and detected by blotting with anti-ATM/ATR substrate (pSer/pThr)Gln antibody (CELL SIGNALING TECHNOLOGY, Inc Beverly, Mass.), polyclonal anti-53BP1 (ONCOGENE […] PRODUCTS, San Diego, Calif. 92121), or monoclonal anti-HA (COVANCE Inc, Princeton, N.J.). For peptide competition experiments, GST-PTIP BRCT domains or GST-BRCA1 BRCT domains were immobilized on glutathionine beads and preincubated with 350 μM of BRCTtide-optimal, 7pT, 7T, pSQ-library, SQ-library, or pTP-library for 1 hour at 4° C. and washed three times with lysis buffer.

[2] = biological target: T1, GST-BRCA1 tandem BRCT domains interaction with phosphoproteins (Homo sapiens, UniProt P38398); assay: GST-BRCA1 tandem BRCT pull-down of DNA damage-induced phosphoproteins from irradiated U2OS cells; assay type: binding
T1 construct: 15 μM GST-BRCA1 BRCT domains (residues 1634-1863); made in house; host or cells: E. coli DH5a
T1 sequence (P38398 1634-1863): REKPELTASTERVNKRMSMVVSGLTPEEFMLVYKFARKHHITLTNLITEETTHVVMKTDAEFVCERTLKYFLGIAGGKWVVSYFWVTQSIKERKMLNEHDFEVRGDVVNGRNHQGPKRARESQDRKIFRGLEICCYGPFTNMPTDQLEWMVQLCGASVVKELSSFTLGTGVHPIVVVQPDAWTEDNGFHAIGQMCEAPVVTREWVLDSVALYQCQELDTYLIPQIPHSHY
Description: as §1

[3] = biological target: T2, GST-PTIP BRCT domains (residues 550-757) (Homo sapiens, UniProt Q6ZW49); assay: Isothermal titration calorimetry of peptides with PTIP tandem BRCT domains; assay type: binding; conditions: PTIP; N.D.B = no detectable binding by ITC, tandem BRCT domain concentration of at least 150 μM
T2 construct: 15 μM GST-PTIP BRCT domains (residues 550-757); made in house; host or cells: E. coli DH5a
T2 sequence (Q6ZW49 862-1069): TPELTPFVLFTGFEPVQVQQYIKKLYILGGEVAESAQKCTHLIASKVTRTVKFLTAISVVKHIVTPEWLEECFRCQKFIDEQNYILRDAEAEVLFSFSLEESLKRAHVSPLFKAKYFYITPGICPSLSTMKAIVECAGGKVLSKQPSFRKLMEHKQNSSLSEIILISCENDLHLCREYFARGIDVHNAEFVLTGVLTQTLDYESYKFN
Text: (§2) For deletion mapping of the PTIP and BRCA1 BRCT phospho-binding region and for expression of MDC 1, 53BP1 and Rad9 (FIG. 17-18), fragments were generated by PCR for in vitro transcription/translation and cloned into a pcDNA3.1 expression vector (Invitrogen, San Diego, Calif.). For production of recombinant GST-PTIP BRCT domains and GSTBRCA1 BRCT domains, residues 550-757 of PTIP and residues 1634-1863 of BRCA1 were ligated into the EcoRI and NotI sites of pGEX-4T1 (Pharmacia, Peapack, N.J.) and subsequently transformed into DH5a E. Coli. Protein induction occurred at 37° C. for 4 hours or at 25° C. for 16 hours in the presence of 0.4 mM IPTG. For peptide filter blot analysis and measurements of peptide binding affinity by ITC, GSTPTIP BRCT domains (residues 550-757) and GST-BRCA1 BRCT domains (residues 1634-1863) were isolated from bacterial lysates using glutathione agarose, eluted with 40 mM glutathione, and dialyzed into 50 mM Tris/HCl (pH 8.1), 300 mM NaCl. The GFP-PTIP constructs FL (residues 1-757), !BRCT (residues 1-550), or (BRCT)2 (residues 550-757) were cloned into the EcoRI and SalI sites of the pEGFP-C2 (BD Biosciences Clontech Franklin Lakes, N.J.) expression vector.
(§3) Peptides were synthesized by solid phase technique with three C-terminal lysines to enhance solubility. The peptides were then purified by reverse phase HPLC following deprotection and confirmed by MALDI-TOF mass spectrometry. Calorimetry measurements were performed using a VP-ITC microcalorimeter (MicroCal Inc., Studio City, Calif.). Experiments involved serial 10 μL injections of peptide solutions (20 μM-150 μM) into a sample cell containing 15 μM GST-PTIP BRCT domains (residues 550-757) or 15 μM GST-BRCA1 BRCT domains (residues 1634-1863) in 50 mM Tris/HCl (pH 8.1), 300 mM NaCl. Twenty injections were performed with 240 second intervals between injections and a reference power of 25 μCal/s. Binding isotherms were plotted and analyzed using ORIGIN Software (MicroCal Inc. Studio City, Calif.).

[4] = biological target: T3, GST-BRCA1 BRCT domains (residues 1634-1863) (Homo sapiens, UniProt P38398); assay: Isothermal titration calorimetry of peptides with BRCA1 tandem BRCT domains; assay type: binding; conditions: BRCA1; N.D.B = no detectable binding by ITC, tandem BRCT domain concentration of at least 150 μM
T3 construct: 15 μM GST-BRCA1 BRCT domains (residues 1634-1863); made in house; host or cells: E. coli DH5a
T3 sequence (P38398 1634-1863): as the sequence (P38398 1634-1863) above
Text: as §2, §3

[5] = biological target: T4, GST-PTIP tandem BRCT domains interaction with 53BP1 (Homo sapiens, UniProt Q6ZW49); assay: GST-PTIP tandem BRCT pull-down of 53BP1 from irradiated U2OS cells; assay type: binding; conditions: 350 μM peptide or library, 1 hour at 4° C., IR treated U2OS
T4 construct: 10-20 μg of GST-PTIP BRCT domains (residues 550-757); made in house; host or cells: E. coli DH5a (GST-PTIP BRCT); 53BP1 endogenous from U2OS lysate
T4 sequence (Q6ZW49 862-1069): as the sequence (Q6ZW49 862-1069) above
Description: as §1

Row | Compound | effect of caffeine treatment of cells on PTIP BRCT interaction with 53BP1 [1] | effect of caffeine pre-treatment of cells on BRCA1 BRCT binding to (pSer or pThr)-Gln-containing proteins ([2]; caffeine prior to γ-irradiation, U2OS) | Kd (N.D.B.) [3] | Kd (N.D.B.) [4] | effect of bead pre-incubation with peptide/library on PTIP BRCT interaction with 53BP1 [5] | effect of bead pre-incubation with peptide/library on PTIP BRCT interaction with 53BP1 ([5]; listed as non-phosphorylated counterpart) | effect of pre-incubation with peptide/library on BRCA1 BRCT binding to (pSer or pThr)-Gln-containing proteins ([2]; 350 μM peptide or library, U2OS lysates after 10 Gy)
1 | Cn1c(=O)c2c(ncn2C)n(C)c1=O [caffeine, reference compound] | disrupted the interaction; also recorded: eliminated | largely eliminated |  |  |  |  | 
2 | GAAYDITQVFPFAKKK [BRCTtide-7T] |  |  | N.D.B. | N.D.B. | not | not eliminated | not
